Assay results from patent US20230111310A1, “CARBOXYLIC ACID DERIVATIVE-SUBSTITUTED IMINO ARYL COMPOUND, PREPARATION METHOD THEREFOR, HERBICIDAL COMPOSITION AND USE THEREOF” (Qingdao Kingagroot Chemical Compound Co., Ltd., priority 2020, published 2023).

What was measured:
Test in all cases: Weeding effect in post-emergence stage
Assay type in all cases: in vivo
Setaria viridis = conditions: for Weeding effect in post-emergence stage, Setaria viridis: level of fresh weight growth control rate; for Weeding effect in post-emergence stage, Setaria viridis (level): fresh weight control rate level
Procedure, shortened: (§1)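 Doses of 500, 250, 125, 60, 30, 15 and 7.5 g/ha, with methyl oleate synergist (1.5 liter/ha) and Tween 80 from acetone solution, applied by spray tower post-emergence (2–3 leaf stage). Weed control scored after 3 further greenhouse weeks, averaged over triplicates.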

Abutilon theophrasti = conditions: for Weeding effect in post-emergence stage, Abutilon theophrasti: level of fresh weight growth control rate; for Weeding effect in post-emergence stage, Abutilon theophrasti (level): fresh weight control rate level
Procedure, shortened: as §1

Eleusine indica = conditions: for Weeding effect in post-emergence stage, Eleusine indica: level of fresh weight growth control rate; for Weeding effect in post-emergence stage, Eleusine indica (level): fresh weight control rate level
Procedure, shortened: as §1

Digitaria sanguinalis = conditions: for Weeding effect in post-emergence stage, Digitaria sanguinalis: level of fresh weight growth control rate; for Weeding effect in post-emergence stage, Digitaria sanguinalis (level): fresh weight control rate level
Procedure, shortened: as §1

Alopecurus japonicus = conditions: for Weeding effect in post-emergence stage, Alopecurus japonicus: level of fresh weight growth control rate; for Weeding effect in post-emergence stage, Alopecurus japonicus (level): fresh weight control rate level
Procedure, shortened: as §1

Echinochloa crusgalli = conditions: for Weeding effect in post-emergence stage, Echinochloa crusgalli: level of fresh weight growth control rate; for Weeding effect in post-emergence stage, Echinochloa crusgalli (level): fresh weight control rate level
Procedure, shortened: as §1

Row | Structure (SMILES) | Weeding effect in post-emergence stage, Setaria viridis (Setaria viridis; Dose 15 g/ha) | Weeding effect in post-emergence stage, Abutilon theophrasti (Abutilon theophrasti; Dose 15 g/ha) | Weeding effect in post-emergence stage, Eleusine indica (Eleusine indica; Dose 15 g/ha) | Weeding effect in post-emergence stage, Digitaria sanguinalis (Digitaria sanguinalis; Dose 15 g/ha) | Weeding effect in post-emergence stage, Alopecurus japonicus (Alopecurus japonicus; Dose 15 g/ha) | Weeding effect in post-emergence stage, Echinochloa crusgalli (Echinochloa crusgalli; Dose 15 g/ha) | Weeding effect in post-emergence stage, Setaria viridis (level) (Setaria viridis; Dose 15 g/ha) | Weeding effect in post-emergence stage, Abutilon theophrasti (level) (Abutilon theophrasti; Dose 15 g/ha) | Weeding effect in post-emergence stage, Eleusine indica (level) (Eleusine indica; Dose 15 g/ha) | Weeding effect in post-emergence stage, Digitaria sanguinalis (level) (Digitaria sanguinalis; Dose 15 g/ha) | Weeding effect in post-emergence stage, Alopecurus japonicus (level) (Alopecurus japonicus; Dose 15 g/ha) | Weeding effect in post-emergence stage, Echinochloa crusgalli (level) (Echinochloa crusgalli; Dose 15 g/ha) | further results
1 | COC(=O)C(O/N=C/c1cc(-n2c(=O)cc(C(F)(F)F)n(C)c2=O)c(F)cc1Cl)c1ccccc1 (stereo not drawn) [Compound 337] | 5 (Level 5: growth control rate is above 85%) | 5 (Level 5: growth control rate is above 85%) | 5 (Level 5: growth control rate is above 85%) | 5 (Level 5: growth control rate is above 85%) | 5 (Level 5: growth control rate is above 85%) | 5 (Level 5: growth control rate is above 85%) |  |  |  |  |  |  | 
2 | COC(=O)C(C)O/N=C/c1cc(-n2c(=O)cc(C(F)(F)F)n(C)c2=O)c(F)cc1C(F)(F)F (stereo not drawn) [Compound 342] | 5 (Level 5: growth control rate is above 85%) | 5 (Level 5: growth control rate is above 85%) | 5 (Level 5: growth control rate is above 85%) | 5 (Level 5: growth control rate is above 85%) | 4 (Level 4: growth control rate is greater than or equal to 60% and less than 85%) | 5 (Level 5: growth control rate is above 85%) |  |  |  |  |  |  | 
3 | COC(=O)C(C)O/N=C/c1cc(-n2c(=O)cc(C(F)(F)F)n(C)c2=O)c(F)cc1C#N (stereo not drawn) [Compound 344] | 5 (Level 5: growth control rate is above 85%) | 5 (Level 5: growth control rate is above 85%) | 5 (Level 5: growth control rate is above 85%) | 5 (Level 5: growth control rate is above 85%) | 5 (Level 5: growth control rate is above 85%) | 5 (Level 5: growth control rate is above 85%) |  |  |  |  |  |  | 
4 | COC(=O)C(C)O/N=C/c1cc(-n2c(=O)cc(C(F)(F)F)n(C)c2=S)c(F)cc1Cl (stereo not drawn) [Compound 347] |  |  |  |  |  |  |  |  |  |  |  |  | Weeding effect in post-emergence stage, Setaria viridis (Setaria viridis; Dose 30 g/ha): 5 (Level 5: growth control rate is above 85%); Weeding effect in post-emergence stage, Abutilon theophrasti (Abutilon theophrasti; Dose 30 g/ha): 5 (Level 5: growth control rate is above 85%); Weeding effect in post-emergence stage, Eleusine indica (Eleusine indica; Dose 30 g/ha): 5 (Level 5: growth control rate is above 85%); Weeding effect in post-emergence stage, Digitaria sanguinalis (Digitaria sanguinalis; Dose 30 g/ha): 5 (Level 5: growth control rate is above 85%); Weeding effect in post-emergence stage, Alopecurus japonicus (Alopecurus japonicus; Dose 30 g/ha): 5 (Level 5: growth control rate is above 85%); Weeding effect in post-emergence stage, Echinochloa crusgalli (Echinochloa crusgalli; Dose 30 g/ha): 5 (Level 5: growth control rate is above 85%)
5 | CCSC(=O)C(C)O/N=C/c1cc(-n2c(=O)cc(C(F)(F)F)n(C)c2=O)c(F)cc1Cl (stereo not drawn) [Compound 398] |  |  |  |  |  |  | 5 (Level 5: growth control rate is above 85%) | 5 (Level 5: growth control rate is above 85%) | 5 (Level 5: growth control rate is above 85%) | 5 (Level 5: growth control rate is above 85%) | 5 (Level 5: growth control rate is above 85%) | 5 (Level 5: growth control rate is above 85%) | 
6 | CCCSC(=O)C(C)O/N=C/c1cc(-n2c(=O)cc(C(F)(F)F)n(C)c2=O)c(F)cc1Cl (stereo not drawn) [Compound 399] |  |  |  |  |  |  | 5 (Level 5: growth control rate is above 85%) | 5 (Level 5: growth control rate is above 85%) | 5 (Level 5: growth control rate is above 85%) | 5 (Level 5: growth control rate is above 85%) | 5 (Level 5: growth control rate is above 85%) | 5 (Level 5: growth control rate is above 85%) | 
7 | CC(C)SC(=O)C(C)O/N=C/c1cc(-n2c(=O)cc(C(F)(F)F)n(C)c2=O)c(F)cc1Cl (stereo not drawn) [Compound 400] |  |  |  |  |  |  | 5 (Level 5: growth control rate is above 85%) | 5 (Level 5: growth control rate is above 85%) | 5 (Level 5: growth control rate is above 85%) | 5 (Level 5: growth control rate is above 85%) | 4 (Level 4: growth control rate is greater than or equal to 60% and less than 85%) | 5 (Level 5: growth control rate is above 85%) | 
